According to US11780845B2 (Relay Therapeutics, Inc., priority 2019, dated 2023):

What was measured:
[1] = test system: SNU-16; experiment: Cell SNU-16 assay; type: cell-based
[2] = target: FGFR2 (Homo sapiens (Human), UniProt P21802); experiment: Biochemical FGFR2 Caliper assay
[3] = Homo sapiens, SNU-16, SNU-16 cells

FGFR2, sequence (P21802 22-821): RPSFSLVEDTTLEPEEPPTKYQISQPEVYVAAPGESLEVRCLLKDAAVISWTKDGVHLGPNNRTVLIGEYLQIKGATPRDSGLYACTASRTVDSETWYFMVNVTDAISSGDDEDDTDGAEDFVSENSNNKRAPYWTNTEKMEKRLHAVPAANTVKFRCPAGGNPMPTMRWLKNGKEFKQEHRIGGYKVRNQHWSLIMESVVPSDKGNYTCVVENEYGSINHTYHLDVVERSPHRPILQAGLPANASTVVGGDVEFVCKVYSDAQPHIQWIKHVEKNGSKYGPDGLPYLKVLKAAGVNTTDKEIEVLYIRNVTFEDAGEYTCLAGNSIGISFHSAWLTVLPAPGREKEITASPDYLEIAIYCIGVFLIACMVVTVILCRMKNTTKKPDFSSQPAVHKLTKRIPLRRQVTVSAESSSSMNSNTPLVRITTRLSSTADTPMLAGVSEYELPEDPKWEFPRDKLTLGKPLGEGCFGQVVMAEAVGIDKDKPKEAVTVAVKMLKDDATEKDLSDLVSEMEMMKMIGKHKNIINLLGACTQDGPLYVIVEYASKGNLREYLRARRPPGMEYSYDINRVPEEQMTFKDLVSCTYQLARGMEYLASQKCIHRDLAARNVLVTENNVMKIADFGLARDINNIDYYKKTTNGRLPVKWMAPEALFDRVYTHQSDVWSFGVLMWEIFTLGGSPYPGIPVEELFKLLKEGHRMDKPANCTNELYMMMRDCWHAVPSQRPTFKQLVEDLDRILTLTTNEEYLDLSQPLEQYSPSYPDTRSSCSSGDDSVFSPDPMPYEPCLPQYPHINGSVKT

| SMILES | IC50 [1, 3] | IC50 [2] | IC50 ([1]; SNU-16 cells) |
| --- | --- | --- | --- |
| C=C1C[C@@H](C)N(c2ccc(-c3c(-c4ccc(Oc5nccc(C)n5)cc4)c4c(N)ncnc4n3C)cc2)C1=O [Example 1113] | ≤ 100 nM | < 100 nM | – |
| CC1=C[C@@H](C)N(c2ccc(-c3c(-c4ccc(Oc5nccc(C)n5)cc4)c4c(N)ncnc4n3C)cc2)C1=O [Example 1114] | ≤ 100 nM | 250 to 1000 nM | – |
| C=C(C)C(=O)Nc1ccc(-c2c(C3=CC[C@@H](S(=O)(=O)N4CCCC4)CC3)c3c(N)ncnc3n2C)c(C)c1 [Example 1115] | 1000 to 100000 nM | 1000 to 100000 nM | – |
| C=C(C)C(=O)Nc1ccc(-c2c(C3=CC[C@H](S(=O)(=O)N4CCCC4)CC3)c3c(N)ncnc3n2C)c(C)c1 [Example 1116] | ≤ 100 nM | 100 to 250 nM | – |
| C#Cc1ncc(-c2c(-c3ccc(Oc4nccc(C)n4)cc3)c3c(N)ncnc3n2C)cn1 [Example 1117] | – | 100 to 250 nM | ≤ 100 nM |
| CC1=C[C@H](C)N(c2ccc(-c3c(-c4ccc(Oc5nccc(C)n5)cc4)c4c(N)ncnc4n3C)cc2)C1=O [Example 1118] | ≤ 100 nM | < 100 nM | – |
| C#Cc1cc(C)c(-c2c(-c3ccc(Oc4nccc(C)n4)c(F)c3)c3c(N)ncnc3n2C)cn1 [Example 1119] | – | 1000 to 100000 nM | 250 to 1000 nM |
| C=CC(=O)Nc1ccc(-c2c(-c3ccc(O)cc3)c3c(N)ncnc3n2C)cc1 [Example 1120] | ≤ 100 nM | < 100 nM | – |
| Cc1cccc(Oc2ccc(-c3c(-c4cccc(NC#N)c4)n(C)c4ncnc(N)c34)cc2)n1 [Example 1121] | ≤ 100 nM | < 100 nM | – |
| C=C(C)C(=O)Nc1ccc(-c2c(-c3ccc(-c4nnc(C)o4)cc3)c3c(N)ncnc3n2C)cc1 [Example 1123] | 250 to 1000 nM | 1000 to 100000 nM | – |
| C=C(C)C(=O)Nc1ccc(-c2c(-c3ccc(-c4ccn(C)n4)nc3)c3c(N)ncnc3n2C)cc1 [Example 1124] | 250 to 1000 nM | 1000 to 100000 nM | – |
| C=C(C)C(=O)Nc1ccc(-c2c(-c3ccc(Oc4nccc(C)n4)cc3)c3c(C)ncnc3n2C)c(C)c1 [Example 1125] | 1000 to 100000 nM | 1000 to 100000 nM | – |
| C=C(C)C(=O)Nc1ccc(-c2c(-c3ccc(Oc4nccc(C)n4)c(F)c3)c3c(C)ncnc3n2C)c(C)c1 [Example 1126] | ≤ 100 nM | < 100 nM | – |
| C=CC(=O)Nc1ccc(-c2c(-c3cn[nH]c3)c3c(N)ncnc3n2C)cc1 [Example 1128] | ≤ 100 nM | < 100 nM | – |
| C#Cc1cc(C)c(-c2[nH]c3ncnc(N)c3c2-c2ccc(Oc3nccc(C)n3)cc2)cn1 [Example 1130] | 250 to 1000 nM | 250 to 1000 nM | – |
| C=C1C[C@H](C)N(c2ccc(-c3c(-c4ccc(Oc5nccc(C)n5)cc4)c4c(N)ncnc4n3C)cc2)C1=O [Example 1131] | ≤ 100 nM | < 100 nM | – |
| C=CC(=C)Nc1ccc(-c2c(-c3cnn(C)c3)c3c(N)ncnc3n2C)c(C)c1 [Example 1132] | 250 to 1000 nM | 1000 to 100000 nM | – |
| C=C1C(=O)N(c2ccc(-c3c(-c4ccc(Oc5nccc(C)n5)cc4)c4c(N)ncnc4n3C)cc2)C[C@@H]1C [Example 1133] | 100 to 250 nM | 100 to 250 nM | – |
| C=C1C(=O)N(c2ccc(-c3c(-c4ccc(Oc5nccc(C)n5)cc4)c4c(N)ncnc4n3C)cc2)C[C@H]1C [Example 1135] | 100 to 250 nM | 250 to 1000 nM | – |
| C#Cc1cc(C)c(-c2c(-c3ccc(Oc4nccc(C)n4)cc3)c3c(N)ncnc3n2C)nn1 [Example 1136] | ≤ 100 nM | < 100 nM | – |
| C=CC(=O)Nc1ccc(-c2c(-c3cc4ccccc4[nH]3)c3c(N)ncnc3n2C)cc1 [Example 1138] | ≤ 100 nM | < 100 nM | – |

| SMILES | IC50 [1, 3] | IC50 [2] | IC50 ([1]; SNU-16 cells) |
| --- | --- | --- | --- |
| C#Cc1cc(C)c(-c2c(-c3ccc(C(=O)NC4CCC4)c(OC)c3)c3c(N)ncnc3n2C)cn1 [Example 1143] | 250 to 1000 nM | 1000 to 100000 nM | – |
| C#Cc1cc(C)c(-c2c(-c3cnn(C)c3)c3c(N)ncnc3n2C)cn1 [Example 1144] | ≤ 100 nM | 100 to 250 nM | – |
| C=C(C)C(=O)Nc1ccc(-c2c(-c3ccc(-c4noc(C)n4)cc3)c3c(N)ncnc3n2C)cc1 [Example 1145] | 1000 to 100000 nM | 1000 to 100000 nM | – |
| C=CC(=O)Nc1ccc(-c2c(-c3ccc4[nH]ccc4c3)c3c(N)ncnc3n2C)cc1 [Example 1148] | ≤ 100 nM | < 100 nM | – |
| C=C(C)C(=O)Nc1ccc(-c2c(-c3ccc(-n4cc(C)cn4)nc3)c3c(N)ncnc3n2C(C)C)cc1 [Example 1151] | 250 to 1000 nM | 100 to 250 nM | – |
| C#Cc1ncc(-c2c(-c3ccc(Oc4nccc(C)n4)c(F)c3)c3c(N)ncnc3n2C)c(C)n1 [Example 1153] | 100 to 250 nM | < 100 nM | – |
| C=CC(=O)Nc1ccc(-c2c(-c3cc[nH]c3)c3c(N)ncnc3n2C)cc1 [Example 1154] | ≤ 100 nM | < 100 nM | – |
| C=C(C)C(=O)Nc1ccc(-c2c(-c3ccc(-c4ccnn4C)nc3)c3c(N)ncnc3n2C)cc1 [Example 1155] | ≤ 100 nM | < 100 nM | – |
| C=CC(=O)Nc1ccc(-c2c(-c3c[nH]c4ccccc34)c3c(N)ncnc3n2C)cc1 [Example 1157] | 250 to 1000 nM | 250 to 1000 nM | – |
| C=CC(=O)Nc1ccc(-c2c(-c3ccc(=O)[nH]c3)c3c(N)ncnc3n2C)cc1 [Example 1158] | ≤ 100 nM | < 100 nM | – |
| C#Cc1cc(C)c(-c2c(-c3ccc(OC(C)C)cc3)c3c(N)ncnc3n2C)cn1 [Example 1160] | ≤ 100 nM | < 100 nM | – |
| C=C(C)C(=O)Nc1cc(-c2c(-c3ccc(Oc4nccc(C)n4)c(F)c3)c3c(N)ncnc3n2C)n(C)n1 [Example 1161] | ≤ 100 nM | < 100 nM | – |
| CC#Cc1ncc(-c2c(-c3ccc(Oc4nccc(C)n4)cc3)c3c(N)ncnc3n2C)c(C)n1 [Example 1162] | ≤ 100 nM | < 100 nM | – |
| C#Cc1cc(C)c(-c2c(-c3ccc(Oc4nccc(C)n4)c(F)c3)c3c(C)ncnc3n2C)cn1 [Example 1163] | ≤ 100 nM | < 100 nM | – |
| C#Cc1ncc(-c2c(-c3ccc(Oc4nccc(C)n4)cc3)c3c(N)ncnc3n2C)c(C)c1F [Example 1164] | ≤ 100 nM | < 100 nM | – |
| C=C(C)C(=O)Nc1cc(C)c(-c2c(-c3ccc(Oc4nccc(C)n4)cc3)c3c(N)ncnc3n2C)c(C)c1 [Example 1165] | ≤ 100 nM | < 100 nM | – |
| C#Cc1nc2ccc(-c3c(-c4ccc(Oc5nccc(C)n5)cc4)c4c(N)ncnc4n3C)cc2o1 [Example 1167] | ≤ 100 nM | < 100 nM | – |
| C#Cc1ccc(-c2c(-c3ccc(Oc4nccc(C)n4)c(F)c3)c3c(N)ncnc3n2C)c(C)n1 [Example 1168] | 1000 to 100000 nM | < 100 nM | – |
| C#Cc1ncc(-c2c(-c3ccc(Oc4nccc(C)n4)c(F)c3)c3c(C)ncnc3n2C)c(C)n1 [Example 1170] | ≤ 100 nM | < 100 nM | – |
| C#Cc1nc(C)c(-c2c(-c3ccc(Oc4nccc(C)n4)cc3)c3c(N)ncnc3n2C)cc1F [Example 1171] | ≤ 100 nM | < 100 nM | – |
| C=C(C)c1nc(-c2ccc(-c3c(-c4ccccc4)c4c(N)ncnc4n3C)cc2)no1 [Example 1172] | ≤ 100 nM | < 100 nM | – |

| SMILES | IC50 [1, 3] | IC50 [2] | IC50 ([1]; SNU-16 cells) |
| --- | --- | --- | --- |
| C#Cc1ccc(-c2c(-c3ccc(Oc4nccc(C)n4)cc3)c3c(N)ncnc3n2C)cc1F [Example 1175] | ≤ 100 nM | 100 to 250 nM | – |
| C#Cc1c(F)cc(-c2c(-c3ccc(Oc4nccc(C)n4)cc3)c3c(N)ncnc3n2C)cc1F [Example 1177] | ≤ 100 nM | < 100 nM | – |
| C#Cc1ncc(-c2c(C3=CC[C@@H](C(=O)N4CCCC4)CC3)c3c(N)ncnc3n2C)c(C)n1 [Example 1180] | ≤ 100 nM | < 100 nM | – |
| C#Cc1cnc(-c2c(-c3ccc(Oc4nccc(C)n4)cc3)c3c(N)ncnc3n2C)cn1 [Example 1181] | ≤ 100 nM | < 100 nM | – |
| C#Cc1ncc(-c2c(-c3ccc(C(=O)N4CCC[C@@H]4C#C)cc3)c3c(N)ncnc3n2C)c(C)n1 [Example 1182] | ≤ 100 nM | < 100 nM | – |
| C#Cc1ccc(-c2c(-c3ccc(Oc4nccc(C)n4)c(F)c3)c3cncnc3n2C)c(C)n1 [Example 1183] | ≤ 100 nM | < 100 nM | – |
| C#Cc1ncc(-c2c(-c3ccc(C(=O)N4CCC[C@H]4C#C)cc3)c3c(N)ncnc3n2C)c(C)n1 [Example 1184] | 1000 to 100000 nM | 1000 to 100000 nM | – |
| C#Cc1cc(C)c(-c2c(-c3ccc(C(=O)N4CCC[C@H]4C#C)cc3)c3c(N)ncnc3n2C)cn1 [Example 1185] | ≤ 100 nM | < 100 nM | – |
| C=C1CCN(c2ccc(-c3c(-c4ccc(Oc5nccc(C)n5)c(F)c4)c4c(C)ncnc4n3C)c(C)c2)C1=O [Example 1186] | ≤ 100 nM | < 100 nM | – |
| C#Cc1cc(C)c(-c2c(-c3ccc(C(=O)N4CCC[C@@H]4C#C)cc3)c3c(N)ncnc3n2C)cn1 [Example 1187] | ≤ 100 nM | < 100 nM | – |
| C#Cc1ncc(-c2c(-c3ccc(Oc4nccc(C)n4)cc3)c3c(N)ncnc3n2C)cc1C#N [Example 1188] | ≤ 100 nM | < 100 nM | – |
| C=C(C)C(=O)Nc1ccc(-c2c(C3=CCN(Cc4ccccc4)CC3)c3c(N)ncnc3n2C)cc1 [Example 1189] | ≤ 100 nM | < 100 nM | – |
| C#Cc1cc(-c2c(-c3ccccc3)c3c(N)ncnc3n2C)ccn1 [Example 1193] | 250 to 1000 nM | 250 to 1000 nM | – |
| C=Cc1ccc(-c2c(-c3ccccc3)c3c(N)ncnc3n2C)cn1 [Example 1194] | 1000 to 100000 nM | 1000 to 100000 nM | – |
| C#Cc1ccc(-c2c(-c3ccc(Oc4nccc(C)n4)cc3F)c3c(N)ncnc3n2C)c(C)n1 [Example 1197] | ≤ 100 nM | < 100 nM | – |
| C#Cc1cc(F)c(-c2c(-c3ccc(Oc4nccc(C)n4)c(F)c3)c3c(N)ncnc3n2C)cn1 [Example 1198] | ≤ 100 nM | < 100 nM | – |
| C#Cc1ccc(-c2c(-c3ccc(Oc4nccc(C)n4)c(F)c3)c3c(N)ncnc3n2C)c(F)n1 [Example 1200] | 1000 to 100000 nM | 1000 to 100000 nM | – |
| C#Cc1nc2cc(-c3c(-c4ccc(Oc5nccc(C)n5)c(F)c4)c4c(N)ncnc4n3C)ccc2[nH]1 [Example 1202] | 250 to 1000 nM | 1000 to 100000 nM | – |
| C#Cc1cc(C)c(-c2c(-c3ccc(Oc4cccc(C)n4)c(F)c3)c3c(N)ncnc3n2C)cn1 [Example 1203] | ≤ 100 nM | < 100 nM | – |
